Two molecules from paper PMC11178908, “Diabetes drugs activate neuroprotective pathways in models of neonatal hypoxic-ischemic encephalopathy” (EMBO Molecular Medicine, 2024) can be followed below.

Values joined by “and” are separate entries in the source; they are usually repeats but may differ in a detail not shown here. Identical values can stand only once. “Also recorded” adds a separate entry of the source.

One series deals with GLP1-R. As to the kind of experiment: cAMP content in the brain of naïve P10 mice (blood-brain barrier crossing). It is filed as in vivo.
Series [1] is described as follows: Blood glucose / hypoglycaemia. The format is in vivo, P10 CD1 mice. As to conditions: for blood glucose: HI P10 mice. As to the method: (§1) Thereafter, a dosing experiment was conducted to evaluate the optimal dose for semaglutide in the same neonatal HIE model (Fig. EV2F) and brain protection was measured using a macroscopic scoring system to assess the size of the infarct.
Blood glucose levels (mmol/l) were measured using a blood glucose monitor (CodeFree, SD Biosensor) in naive controls and mice following one semaglutide dose administration (0.25 µg/g) with or without glucose supplementation, intraperitoneally or subcutaneously to determine the best route of administration. Blood samples were collected via cardiac puncture at 0.5 h, 2 h, 24 h, 7 days, and 14 days for glucose test. Brains of P10 naive mice or treated at the different time points were collected (n = 4 per group). All samples were processed using […] as per manufacturer’s instructions (Abcam).

Series [2] concerns P10 CD1 mice with surgically induced HI. Put plainly: Mortality after semaglutide in neonatal mice with HI. The format is in vivo. The note with it: semaglutide 0.5 µg/g (500 µg/kg), no glucose. As to the method:
as §1
The body temperature was maintained using a heating mat. […] The pups were then immediately returned to the dam. […] 1% mortality was observed following this procedure. […] The study design is illustrated in Fig. EV1.

A further series deals with pGSK3β-S9. Put plainly: pGSK3β-S9 protein level in brain (western blot) after HI.
A further series deals with human GLP1-R. Put plainly: GLP1-R activation, luciferase reporter in GLP1-R/pCRE-luciferase/CHO-K1 cells. The format is cell-based. As to conditions: exendin-9 (500 nM) with 1 μM semaglutide or exendin-4.
Another series concerns HIF-1-α. As to the kind of experiment: HIF-1-α expression (qPCR) in primary neurons exposed to OGD. It is filed as cell-based, CD1 mice. The note with it: p < 0.0001 exendin-4, p < 0.0001 semaglutide.
The next series concerns ATF-3. Put plainly: ATF-3 expression (qPCR, immunofluorescence) in primary neurons exposed to OGD. It is filed as cell-based, CD1 mice.
The next series deals with CREB. As to the kind of experiment: CREB expression (qPCR) in primary neurons exposed to OGD. The format is cell-based, CD1 mice. As to conditions: p = 0.0016 exendin-4, p = 0.0002 semaglutide.
The subject of the next series is caspase 3. As to the kind of experiment: Caspase 3 activity in primary neurons exposed to OGD. It is filed as cell-based, CD1 mice.

Description for ATF-3: (§2) Cells were plated at a density of 2 × 10^6 cells/6 cm plate and propagated. At DIV 10–12, neurons were subjected to oxygen–glucose deprivation (OGD) in neurobasal-A medium lacking glucose and incubated in a hypoxia chamber (Billups-Rothenburg Inc., Del Mar, CA, USA) filled with an anoxic atmosphere of 5% CO2 balanced in nitrogen at 37 °C for 2 h. […] Culture medium was assayed after 24 h.
(§3) RNA from neuron cultures or brains was extracted and isolated using RNeasy Mini kit (Qiagen) and first-strand cDNA was generated using High-Capacity cDNA Reverse Transcription kit (Applied Biosystems). Quantitative RT-PCR was carried out using a StepOnePlus (Applied Biosystems) with the SsoAdvanced™ Universal SYBR Green PCR Core Reagents Supermix (Bio-Rad). Primers sequences were designed to detect GLP1-R, CREB, GSK3β, il-10, IL-4, IL-1β, ATF-3, Bcl-2, Bcl-xL (Appendix Table S1). Data from StepOne™ software v2.3 were calibrated to Gapdh, and the relative quantitation of gene expression was performed using the comparative CT method.
Neuronal cultures (n = 6 per group) were stained by simultaneous overnight incubation with ATF-3 and anti-NeuN antibodies (Appendix Table S2). Representative images were captured using a Zeiss LSM710 confocal microscope and Zen software (Carl Zeiss AG). […] All images were processed using Imaris v.9.1 (Bitplane AG).
Description for CREB: as §2, §3
Description for HIF-1-α: as §2, §3
Description for caspase 3: as §2
Culture medium was assayed after treatment at 24 h post-OGD. All samples were processed using Multiplex caspases 3, 8 and 9 activity assay kit as per manufacturer’s instructions (Abcam – Ab219915).
Description for human GLP1-R: For biological evaluation of GLP-1/Fc for human GLP1-R activation, GLP1-R/pCRE-Luciferase-co-expressed CHO cell lines were established using the lipofectamine method. […] Using a luciferase assay system (Promega – E1500), activity of the GLP1 receptor can be assessed following treatment with GLP1-R agonists for 24 h in 96-well plates.
Description for pGSK3β-S9: Tissues were homogenized (Ultra-Turrax TP, IKA Labortechnik, Wasserburg, Germany) on ice in 300 ml of RIPA lysis buffer (Thermo) per 100 mg of tissue with 1X protease inhibitor cocktail (Thermo) and incubated for 30 min. Lysates were centrifuged at 14,000 × g, 4 °C for 20 min and overall protein concentrations of the supernatant were determined by Pierce BCA Protein Assay (Life Technologies). […] Proteins were transferred to PDVF membrane at 400 mA for 1 h and membrane was blocked for 1 h at 4 °C with 5% BSA in TBS with 3% Tween-20. Membranes were subsequently incubated overnight at 4 °C with primary antibodies (Appendix Table S2) with 3% BSA in TBS with 3% Tween-20. […] Blots were developed with the ECL system (SuperSignal West Pico, Life Technologies) and imaged using a Genegnome imager (Syngene, Cambridge, UK).
All experiments involved litters of postnatal day 10 CD1 mice (P10) bred in-house. […] This was achieved using heating mats, heated incubators and prompt returning of pups to the dam. […] The left common carotid artery was permanently occluded with 8/0 polypropylene suture and the wound closed with tissue glue. The body temperature was maintained using a heating mat. The mice recovered in an incubator at 37 °C and were returned to the dam for 1 h. […] The pups were then immediately returned to the dam. […] All treatments were administered immediately after HI via intraperitoneal administration. […] Treated animal were culled at either 48 h post HI for ST studies or 60 days post HI for LT studies.

As to `CC[C@H](C)[C@H](NC(=O)[C@H](Cc1ccccc1)NC(=O)[C@H](CCC(=O)O)NC(=O)[C@H](CCCCNC(=O)COCCOCCNC(=O)COCCOCCNC(=O)CC[C@H](NC(=O)CCCCCCCCCCCCCCCCC(=O)O)C(=O)O)NC(=O)[C@H](C)NC(=O)[C@H](C)NC(=O)[C@H](CCC(N)=O)NC(=O)CNC(=O)[C@H](CCC(=O)O)NC(=O)[C@H](CC(C)C)NC(=O)[C@H](Cc1ccc(O)cc1)NC(=O)[C@H](CO)NC(=O)[C@H](CO)NC(=O)[C@@H](NC(=O)[C@H](CC(=O)O)NC(=O)[C@H](CO)NC(=O)[C@@H](NC(=O)[C@H](Cc1ccccc1)NC(=O)[C@@H](NC(=O)CNC(=O)[C@H](CCC(=O)O)NC(=O)C(C)(C)NC(=O)[C@@H](N)Cc1cnc[nH]1)[C@@H](C)O)[C@@H](C)O)C(C)C)C(=O)N[C@@H](C)C(=O)N[C@@H](Cc1c[nH]c2ccccc12)C(=O)N[C@@H](CC(C)C)C(=O)N[C@H](C(=O)N[C@@H](CCCNC(=N)N)C(=O)NCC(=O)N[C@@H](CCCNC(=N)N)C(=O)NCC(=O)O)C(C)C` [semaglutide], the blood-brain barrier crossing result in the series on GLP1-R (IP, naïve neonatal mice) is listed as “cross the blood-brain barrier”. The “entry into the brain and GLP1-R activation, IP vs SC” value with GLP1-R (p < 0.0001 at 30 mins, p = 0.0024 at 2 h) was “more rapid when the agonist was given IP compared with subcutaneously”. In addition, the blood glucose result in series [1] (0.5 µg/g IP, 30 min, p = 0.0002) was “Statistically significant hypoglycaemia”; in series [1] (0.5 µg/g IP, 2 h, p = 0.0003), “Statistically significant hypoglycaemia”; in series [1] (0.5 µg/g IP, 24 h, p = 0.0003), “Statistically significant hypoglycaemia”; in [1] (0.5 µg/g SC, 2 h, p = 0.0180), “Statistically significant hypoglycaemia”; in series [1] (0.5 µg/g SC, 24 h, p = 0.0289), “Statistically significant hypoglycaemia”. Further, the “hypoglycaemia with oral glucose supplementation” value in series [1] (2 mg/g oral glucose, semaglutide 0.5 µg/g) is recorded as “completely compensated for by oral supplementation with 2 mg/g glucose”. Besides, in [1] (intraperitoneal, high dose in HI neonatal mice), the “fall in blood glucose” value was “drop significantly within 30 min”. Moreover, the “mortality / recovery after HI surgery” value in series [2] is “increased mortality; also recorded: some mice did not recover from HI surgery”. Also, in the series on pGSK3β-S9 (after HI, western blot, relative to β-actin, single animals, n = 4), the pGSK3β-S9 protein level was 0.3664 and 0.5017 and 0.5395 and 0.3157. Moreover, the “pGSK3β-S9 protein level vs HI saline” value in the series on pGSK3β-S9 (p = 0.0001 both) is “modulated”.
As for exendin 9-39 [exendin-9], the “effect of antagonist on agonist-induced luciferase expression” value in the series on human GLP1-R was “inhibited”. The “HIF-1-α expression vs OGD” value in the series with HIF-1-α was “inhibited this improvement”. Besides, the “ATF-3 average expression/GAPDH” value in the series on ATF-3 (OGD neurons, treatment 2 h after OGD, qPCR, single samples, n = 3, listed as Ex-9) is 21.697 and 22.687 and 26.651. For the same molecule, the “ATF-3 expression vs OGD” value in the series with ATF-3 (qPCR and immunofluorescence, p = 0.0378 exendin-4, p = 0.0226 semaglutide) was “inhibited this effect”. The “CREB expression vs OGD” value in the series on CREB is on record as “blocked this effect”. For the same molecule, in the series with caspase 3 (24 h post-OGD, single replicates, n = 5, listed as Ex-9), the “Caspase 3 activity” value was 1.4812 and 1.737 and 1.2406 and 1.699 and 1.511. Moreover, the “effect of antagonist on anti-apoptotic effects of exendin-4 and semaglutide” value in the series with caspase 3 (Bcl-xL, Bcl-2, caspases 3, 8, 9) is reported as “inhibited the anti-apoptotic effects”.
